Experimental data taken from patent publication EP4818179A1, “PREPARATION FOR AND USE OF PYRIMIDO-THIOPYRANDIONE INHIBITOR FOR KRAS G12C MUTANT PROTEIN” (Ya Therapeutics Inc, priority 2024, dated 2025).

The molecules below were run on H358 (KRAS G12C mutant) cells (assay: Tumor cell proliferation inhibition experiment (Cell Titer-Glo luminescent cell viability assay)). Conditions: Homo sapiens, NCI-H358, 72 h, read-out: NCI-H538 IC50(nm).
Procedure: H358 (KRAS G12C mutant) cells were digested, centrifuged, and resuspended. Cell density was determined using a Scepter automated cell counter. The cells were diluted to a solution containing 44,000 cells per milliliter. The adjusted cell solution was added to 90 µL per well in a 96-well culture plate. The 96-well plate was placed in a 37°C, 5% CO2 incubator. After culturing the cells for 24 hours, different concentrations of the test compound were added. The cells were then cultured with the compound for 72 hours in the presence of 10% fetal bovine serum. The ATP content was measured using the Cell Titer-Glo luminescent cell viability assay kit (see manufacturer's instructions for details) to assess cell growth inhibition. In short, 30 µL of Cell Titer-Glo reagent was added to each well, and the plate was shaken for 10 minutes to induce cell lysis. The fluorescence signal was detected and recorded using a Fluoroskan Ascent FL (Thermo). The maximum signal value was obtained from cells treated with dimethyl sulfoxide for 72 hours. Minimum signal value was obtained from a single culture medium (zero cell count). Inhibition rate % = (maximum signal value - minimum signal value) / (maximum signal value - minimum signal value × 100%). Data was processed using GraphPadprism 5 software. IC50 values were calculated by fitting an S-shaped dose-response curve.

SMILES	IC50 [nM]
C=CC(=O)N1CCN(c2nc(OC[C@@]34CCCN3C[C@H](F)C4)nc3c2CS(=O)(=O)C(c2c(F)c(N)cc(C)c2C(F)(F)F)C3)[C@@H](C)C1 (stereo partly drawn) [Compound 1, 1-((3S)-4-(7-(3-amino-2-fluoro-5-methyl-6-(trifluoromethyl)phenyl)-2-(((2R,7AS)-2-fluorotetrahydro-1H-pyrrolazin-7a(5H)-yl)methoxy)-6,6-dioxo-7,8-dihydro-5H-thiaran[4,3-d]pyrimidin-4-yl)-3-methylpyrazin-1-yl)prop-2-en-1-one]	< 10
C=CC(=O)N1CCN(c2nc(OC[C@@]34CCCN3C[C@H](F)C4)nc3c2CS(=O)(=O)[C@H](c2c(F)c(N)cc(C)c2C(F)(F)F)C3)[C@@H](C)C1 [Compound 1A, 1-((3S)-4-((7S)-7-(3-amino-2-fluoro-5-methyl-6-(trifluoromethyl)phenyl)-2-(((2R,7A S)-2-fluorotetrahydro-1H-pyrrolazin-7a(5H)-yl)methoxy)-6,6-dioxo-7,8-dihydro-5H-thiaran[4,3-d]pyrimidin-4-yl)-3-methylpyrazin-1-yl)prop-2-en-1-one]	< 10
C=C(F)C(=O)N1CCN(c2nc(OC[C@@]34CCCN3C[C@H](F)C4)nc3c2CS(=O)(=O)C(c2c(F)c(N)cc(C)c2C(F)(F)F)C3)[C@@H](C)C1 (stereo partly drawn) [Compound 2, 1-((3S)-4-(7-(3-amino-2-fluoro-5-methyl-6-(trifluoromethyl)phenyl)-2-(((2R,7AS)-2-fluorotetrahydro-1H-pyrrolazin-7a(5H)-yl)methoxy)-6,6-dioxo-7,8-dihydro-5H-thiaran[4,3-d]pyrimidin-4-yl)-3-methylpyrazin-1-yl)-2-fluoroprop-2-en-1-one]	< 10
C=C(F)C(=O)N1CCN(c2nc(OC[C@@]34CCCN3C[C@H](F)C4)nc3c2CS(=O)(=O)[C@H](c2c(F)c(N)cc(C)c2C(F)(F)F)C3)[C@@H](C)C1 [Compound 2A, 1-((3S)-4-((7S)-7-(3-amino-2-fluoro-5-methyl-6-(trifluoromethyl)phenyl)-2-(((2R,7A S)-2-fluorotetrahydro-1H-pyrrolazin-7a(5H)-yl)methoxy)-6,6-dioxo-7,8-dihydro-5H-thiaran[4,3-d]pyrimidin-4-yl)-3-methylpyrazin-1-yl)-2-fluoroprop-2-en-1-one]	< 10
C=C(F)C(=O)N1CCN(c2nc(OC[C@@]34CCCN3C[C@H](F)C4)nc3c2CS(=O)(=O)[C@@H](c2c(F)c(N)cc(C)c2C(F)(F)F)C3)[C@@H](C)C1 [Compound 2B, 1-((3S)-4-((7R)-7-(3-amino-2-fluoro-5-methyl-6-(trifluoromethyl)phenyl)-2-(((2R,7A S)-2-fluorotetrahydro-1H-pyrrolazin-7a(5H)-yl)methoxy)-6,6-dioxo-7,8-dihydro-5H-thiaran[4,3-d]pyrimidin-4-yl)-3-methylpyrazin-1-yl)-2-fluoroprop-2-en-1-one]	< 10
C=CC(=O)N1CCN(c2nc(OC[C@@]34CCCN3C[C@H](F)C4)nc3c2CS(=O)(=O)C(c2c(F)c(N)cc(C)c2C(F)(F)F)C3)C[C@@H]1CC#N (stereo partly drawn) [Compound 3, 2-((2S)-1-Acryloyl-4-(7-(3-amino-2-fluoro-5-methyl-6-(trifluoromethyl)phenyl)-2-(((2R,7AS)-2-fluorotetrahydro-1H-pyrrolazin-7a(5H)-yl)methoxy)-6,6-dioxo-7,8-dihydro-5H-thiaran[4,3-d]pyrimidin-4-yl)pyrazin-2-yl)acetonitrile]	< 10
C=CC(=O)N1CCN(c2nc(OC[C@@]34CCCN3C[C@H](F)C4)nc3c2CS(=O)(=O)[C@H](c2c(F)c(N)cc(C)c2C(F)(F)F)C3)C[C@@H]1CC#N [Compound 3A, 2-((2S)-1-Acryloyl-4-((7S)-7-(3-amino-2-fluoro-5-methyl-6-(trifluoromethyl)phenyl)-2-(((2R,7AS)-2-fluorotetrahydro-1H-pyrrolazin-7a(5H)-yl)methoxy)-6,6-dioxo-7,8-di hydro-5H-thiaran[4,3-d]pyrimidin-4-yl)pyrazin-2-yl)acetonitrile]	< 10
C=C(F)C(=O)N1CCN(c2nc(OC[C@@]34CCCN3C[C@H](F)C4)nc3c2CS(=O)(=O)C(c2c(F)c(N)cc(C)c2C(F)(F)F)C3)C[C@@H]1CC#N (stereo partly drawn) [Compound 4, 2-((2S)-4-(7-(3-amino-2-fluoro-5-methyl-6-(trifluoromethyl)phenyl)-2-(((2R,7AS)-2-fluorotetrahydro-1H-pyrrolazin-7a(5H)-yl)methoxy)-6,6-dioxo-7,8-dihydro-5H-thiaran[4,3-d]pyrimidin-4-yl)-1-(2-fluoroacryloyl)pyrazin-2-yl)acetonitrile]	< 10
C=CC(=O)N1CCN(c2nc(OC[C@@]34CCCN3C[C@H](F)C4)nc3c2CS(=O)(=O)C(c2nc(N)cc(C)c2C(F)(F)F)C3)[C@@H](C)C1 (stereo partly drawn) [Compound 5, 1-((3S)-4-(7-(6-amino-4-methyl-3-(trifluoromethyl)pyridin-2-yl)-2-(((2R,7AS)-2-fluorotetrahydro-1H-pyrrolazin-7a(5H)-yl)methoxy)-6,6-dioxo-7,8-dihydro-5H-thiaran[4,3-d]pyrimidin-4-yl)-3-methylpyrazin-1-yl)prop-2-en-1-one]	< 10
C=CC(=O)N1CCN(c2nc(OC[C@@]34CCCN3C[C@H](F)C4)nc3c2CS(=O)(=O)[C@@H](c2nc(N)cc(C)c2C(F)(F)F)C3)[C@@H](C)C1 [Compound 5B, 1-((3S)-4-((7R)-7-(6-amino-4-methyl-3-(trifluoromethyl)pyridin-2-yl)-2-(((2R,7AS)-2-fluorotetrahydro-1H-pyrrolazin-7a(5H)-yl)methoxy)-6,6-dioxo-7,8-dihydro-5H-thiaran[4,3-d]pyrimidin-4-yl)-3-methylpyrazin-1-yl)prop-2-en-1-one]	< 10
C=C(F)C(=O)N1CCN(c2nc(OC[C@@]34CCCN3C[C@H](F)C4)nc3c2CS(=O)(=O)C(c2nc(N)cc(C)c2C(F)(F)F)C3)[C@@H](C)C1 (stereo partly drawn) [Compound 6, 1-((3S)-4-(7-(6-amino-4-methyl-3-(trifluoromethyl)pyridin-2-yl)-2-(((2R,7AS)-2-fluorotetrahydro-1H-pyrrolazin-7a(5H)-yl)methoxy)-6,6-dioxo-7,8-dihydro-5H-thiaran[4,3-d]pyrimidin-4-yl)-3-methylpyrazin-1-yl)-2-fluoroprop-2-en-1-one]	< 10

Second part, the molecule after the results:

IC50 [nM]	SMILES
< 10	C=CC(=O)N1CCN(c2nc(OC[C@@]34CCCN3C[C@H](F)C4)nc3c2CS(=O)(=O)[C@@H](c2c(F)c(N)cc(C)c2C(F)(F)F)C3)[C@@H](C)C1 [Compound 1B, 1-((3S)-4-((7R)-7-(3-amino-2-fluoro-5-methyl-6-(trifluoromethyl)phenyl)-2-(((2R,7A S)-2-fluorotetrahydro-1H-pyrrolazin-7a(5H)-yl)methoxy)-6,6-dioxo-7,8-dihydro-5H-thiaran[4,3-d]pyrimidin-4-yl)-3-methylpyrazin-1-yl)prop-2-en-1-one]
< 10	C=CC(=O)N1CCN(c2nc(OC[C@@]34CCCN3C[C@H](F)C4)nc3c2CS(=O)(=O)[C@@H](c2c(F)c(N)cc(C)c2C(F)(F)F)C3)C[C@@H]1CC#N [Compound 3B, 2-((2S)-1-Acryloyl-4-((7R)-7-(3-amino-2-fluoro-5-methyl-6-(trifluoromethyl)phenyl) -2-(((2R,7AS)-2-fluorotetrahydro-1H-pyrrolazin-7a(5H)-yl)methoxy)-6,6-dioxo-7,8-dihydro-5H-thiaran[4,3-d]pyrimidin-4-yl)pyrazin-2-yl)acetonitrile]
< 10	C=C(F)C(=O)N1CCN(c2nc(OC[C@@]34CCCN3C[C@H](F)C4)nc3c2CS(=O)(=O)[C@H](c2c(F)c(N)cc(C)c2C(F)(F)F)C3)C[C@@H]1CC#N [Compound 4A, 2-((2S)-4-((7S)-7-(3-amino-2-fluoro-5-methyl-6-(trifluoromethyl)phenyl)-2-(((2R, 7A S)-2-fluorotetrahydro-1H-pyrrolazin-7a(5H)-yl)methoxy)-6,6-dioxo-7,8-dihydro-5H-thiaran[4,3-d]pyrimidin-4-yl)-1-(2-fluoroacryloyl)pyrazin-2-yl)acetonitrile]
< 10	C=C(F)C(=O)N1CCN(c2nc(OC[C@@]34CCCN3C[C@H](F)C4)nc3c2CS(=O)(=O)[C@@H](c2c(F)c(N)cc(C)c2C(F)(F)F)C3)C[C@@H]1CC#N [Compound 4B, 2-((2S)-4-((7R)-7-(3-amino-2-fluoro-5-methyl-6-(trifluoromethyl)phenyl)-2-(((2R, 7A S)-2-fluorotetrahydro-1H-pyrrolazin-7a(5H)-yl)methoxy)-6,6-dioxo-7,8-dihydro-5H-thiaran[4,3-d]pyrimidin-4-yl)-1-(2-fluoroacryloyl)pyrazin-2-yl)acetonitrile]
< 10	C=CC(=O)N1CCN(c2nc(OC[C@@]34CCCN3C[C@H](F)C4)nc3c2CS(=O)(=O)[C@H](c2nc(N)cc(C)c2C(F)(F)F)C3)[C@@H](C)C1 [Compound 5A, 1-((3S)-4-((7S)-7-(6-amino-4-methyl-3-(trifluoromethyl)pyridin-2-yl)-2-(((2R,7AS)-2-fluorotetrahydro-1H-pyrrolazin-7a(5H)-yl)methoxy)-6,6-dioxo-7,8-dihydro-5H-thiaran[4,3-d]pyrimidin-4-yl)-3-methylpyrazin-1-yl)prop-2-en-1-one]
< 10	C=C(F)C(=O)N1CCN(c2nc(OC[C@@]34CCCN3C[C@H](F)C4)nc3c2CS(=O)(=O)[C@H](c2nc(N)cc(C)c2C(F)(F)F)C3)[C@@H](C)C1 [Compound 6A, 1-((3S)-4-((7S)-7-(6-amino-4-methyl-3-(trifluoromethyl)pyridin-2-yl)-2-(((2R,7AS)-2-fluorotetrahydro-1H-pyrrolazin-7a(5H)-yl)methoxy)-6,6-dioxo-7,8-dihydro-5H-thiaran[4,3-d]pyrimidin-4-yl)-3-methylpyrazin-1-yl)-2-fluoroprop-2-en-1-one]
< 10	C=C(F)C(=O)N1CCN(c2nc(OC[C@@]34CCCN3C[C@H](F)C4)nc3c2CS(=O)(=O)[C@@H](c2nc(N)cc(C)c2C(F)(F)F)C3)[C@@H](C)C1 [Compound 6B, 1-((3S)-4-((7R)-7-(6-amino-4-methyl-3-(trifluoromethyl)pyridin-2-yl)-2-(((2R,7AS)-2-fluorotetrahydro-1H-pyrrolazin-7a(5H)-yl)methoxy)-6,6-dioxo-7,8-dihydro-5H-thiaran[4,3-d]pyrimidin-4-yl)-3-methylpyrazin-1-yl)-2-fluoroprop-2-en-1-one]
